This is an account of results in patent US10383948B2, “Anti-cMet antibody drug conjugates and methods for their use” (AbbVie Inc., priority 2016, dated 2019).

The test system of one assay is NCI-H820. Nature of the assay: Cytotoxicity assay (CellTiter-Glo, 6 days). The assay is classed as cell-based, human. The note with it: NCI-H820 lung cancer; relative to untreated control at ≤1 μg/mL in a six day proliferation. As to the method: Tumor cells were plated at 2000-5000 cells/well in 180 μL growth medium containing 10% FBS in 96-well plates, and cultured at 37° C. in a humidified incubator with 5% C02. The following day, titrations of antibodies or ADCs in 20 μL were added and cells were incubated for 6 days. Cell viability was determined using a CellTiter-Glo Luminescent Cell Viability Assay (Promega) according to the manufacturer's instructions.
Tumor cells were plated at 2000-5000 cells/well in 180 μL growth medium containing 10% FBS in 96-well plates, and cultured at 37° C. in a humidified incubator with 5% C02. The following day, titrations of ADCs in 20 μL were added and cells were incubated for 6 days. Cell viability was determined using a CellTiter-Glo Luminescent Cell Viability Assay (Promega) according to the manufacturer's instructions.
For orientation: ATP-based viability assays read luminescence as a measure of living cells.

Another assay has as its system EBC-1. Nature of the assay: Cytotoxicity assay (CellTiter-Glo, 6 days). The class given is cell-based, human. The note with it: EBC-1 lung cancer; relative to untreated control at ≤1 μg/mL in a six day proliferation. How it is done:
(§1) Tumor cells were plated at 2000-5000 cells/well in 180 μL growth medium containing 10% FBS in 96-well plates, and cultured at 37° C. in a humidified incubator with 5% C02. The following day, titrations of antibodies or ADCs in 20 μL were added and cells were incubated for 6 days. Cell viability was determined using a CellTiter-Glo Luminescent Cell Viability Assay (Promega) according to the manufacturer's instructions. A non-binding, irrelevant negative control ADC conjugated to MMAE was also included in all assays to confirm that cell killing was antigen dependent.
(§2) Tumor cells were plated at 2000-5000 cells/well in 180 μL growth medium containing 10% FBS in 96-well plates, and cultured at 37° C. in a humidified incubator with 5% C02. The following day, titrations of ADCs in 20 μL were added and cells were incubated for 6 days. Cell viability was determined using a CellTiter-Glo Luminescent Cell Viability Assay (Promega) according to the manufacturer's instructions. A non-binding, irrelevant negative control ADC conjugated to MMAE was also included in all assays to confirm that cell killing was antigen-dependent.

The test system of a further assay is Hs746T. Nature of the assay: Cytotoxicity assay (CellTiter-Glo, 6 days). The class given is cell-based, human. How it is done: as §1, §2
The next assay relates to KP4. Description: Cytotoxicity assay (CellTiter-Glo, 6 days). The assay is classed as cell-based, human. The note with it: KP4 pancreatic cancer; relative to untreated control at ≤1 μg/mL in a six day proliferation. How it is done: as §1, §2
The subject of a further assay is NCI-H1573. Nature of the assay: Cytotoxicity assay (CellTiter-Glo, 6 days). The class given is cell-based, human. The note with it: NCI-H1573 lung cancer. As to the method: as §1, §2
The next assay has as its system NCI-H441. Description: Cytotoxicity assay (CellTiter-Glo, 6 days). The assay is classed as cell-based, human. Particulars: NCI-H441 lung cancer; relative to untreated control at ≤1 μg/mL in a six day proliferation. As to the method:
as §1, §2

The subject of another assay is SW48. Description: Cytotoxicity assay (CellTiter-Glo, 6 days). Particulars: SW48 colorectal cancer; relative to untreated control at ≤1 μg/mL in a six day proliferation. The assay is classed as cell-based, human. As to the method: as §1, §2
The next assay has as its system U87MG. Description: Cytotoxicity assay (CellTiter-Glo, 6 days). The class given is cell-based, human. The note with it: U-87MG glioblastoma; relative to untreated control at ≤1 μg/mL in a six day proliferation. As to the method:
as §1, §2

Assay [1] deals with NHBE (normal bronchial epithelial). Nature of the assay: Cytotoxicity assay (CellTiter-Glo, 6 days). The class given is cell-based. The note with it: NHBE (bronchial epithelial) non-tumor; relative to untreated control at ≤1 μg/mL in a six day proliferation. As to the method: as §1, §2
For assay [2], the system named is LG1049 patient-derived xenograft. Description: NSCLC patient-derived xenograft, Kaplan-Meier. The class given is in vivo, NSG mice. The note with it: ABBV-399 every four days x6, ABT-700 every seven days x6, FIGS. 10A-10B. From the text:
Tumor fragments of 3 to 5 mm^3 at passage 3 (P3) were implanted subcutaneously in the right rear flank of NSG mice (The Jackson Laboratory) with a trochar. For all groups, tumor volumes were plotted only for the duration that allowed the full set of animal to remain on study. If animals had to be taken off study, the remaining animals were monitored for tumor growth until they reached defined end-points. Efficacy is depicted on a Kaplan-Meier plot for (A) LG0703 and (B) LG1049 models as fractions reaching the indicated tumors volumes following therapy.
(A xenograft is tissue or cells of one species grown in another, often human tumour cells in immunodeficient mice.)

The test system of assay [3] is NCI-H441 lung cancer xenografts. Nature of the assay: NCI-H441 xenograft efficacy. The assay is classed as in vivo, mice. The note with it: both every four days, six doses; dose-dependent; FIG. 11B. From the text: Food and water were available ad libitum.
Each experimental group included 8-10 animals.

The subject of assay [4] is Hs746T ABT-700R xenografts. Description: ABT-700-refractory xenograft efficacy. The assay is classed as in vivo, mice.
Assay [5] has as its system EBC-1 ABT-700R xenograft tumors. Description: ABT-700-refractory xenograft efficacy. The class given is in vivo, mice. Particulars: EBC-1, ABT-700 followed by ABBV-399; FIG. 12C.
The test system of a further assay is cMet+ NSCLC. Description: Phase 1 monotherapy in cMet+ NSCLC, best response. The assay is classed as in vivo, human. How it is done: A dose of 2.7 mg/kg was chosen for dose-expansion based primarily on safety and tolerability. For enrollment in this phase of the study, NSCLC subjects were screened for cMet overexpression using an IHC assay utilizing the CONFIRM anti-total cMet (SP44) Rabbit Monoclonal Primary Antibody kit purchased from Ventana (REF #790-4430). Tissue samples were scored by determining the percentages of target tissue cells staining at various intensity levels of low to high, i.e. IHC score of 0, 1+, 2+ or 3+ or an H-score of 0 to 149, 150-224, or 225-300. The scoring can be done either manually or via the aid of a computer. Details of the IHC assay and scoring are described in Example 17.

The subject of a further assay is NSCLC adenocarcinoma. Description: Phase 1 overall response versus H score. The assay is classed as in vivo, human. Particulars: IHC scores of 225 or greater. From the text: (§3) The IHC score was obtained using the protocol described in Example 17.
The subject of assay [6] is NSCLC squamous cell carcinoma. Nature of the assay: Phase 1 overall response versus H score. The note with it: three patients, 2.7 mg/kg once every 3 weeks, IHC scores between 150 to 224. The class given is in vivo, human.
Source text: as §3

“ABBV-399: ADC comprised of the cMet targeting antibody ABT-700 conjugated to MMAE through a valine citrulline (vc) linker”: the “Maximal Killing” value with NCI-H820 was 87%; in the assay with EBC-1 it was 96%; in the assay on Hs746T (Hs746T gastric cancer, relative to untreated control at ≤1 μg/mL in a six day proliferation) it was 87%; with KP4, 53%; with NCI-H1573 (relative to untreated control at ≤1 μg/mL in a six day proliferation) it was 18%; in the assay with NCI-H441, 56%. Further, the “Maximal Killing” value was 0% in the assay with SW48, 30% with U87MG and 10% in assay [1]. In addition, the “inhibition of proliferation” value in the assay with Hs746T (MET-amplified Hs746T gastric cancer cells, FIG. 4) is recorded as “inhibited proliferation”. In addition, the half-maximal inhibitory concentration (IC50) in the assay on NCI-H1573 (read-out: ABBV-399 IC50, cell proliferation assay, Table 7B) is 18 nM. In addition, the “in vivo activity, comparison” value in assay [2] and in assay [3] was “more active than ABT-700 alone” in each case. The “tumor response” value in assay [4] (Hs746T ABT-700R of approximately 300 mm^3) is “complete tumor regression”; in assay [4] (refractory tumors at mean cohort size approximately 1,000 mm^3, followed by eventual outgrowth), “tumor regression”; in assay [5] it was “remained sensitive”. The substance further yielded a radiographic progressive disease with cMet+ NSCLC (2/16 treated patients) of 12.5%. This substance registered a partial responses in the assay on cMet+ NSCLC (3/16 treated patients) of 19%. In the assay on cMet+ NSCLC (6/16 treated patients), this substance showed a stable disease of 37.5%. Further, the “response” value in the assay on NSCLC adenocarcinoma (four patients, 2.7 mg/kg Q3W and erlotinib) is listed as “partial responses”; with NSCLC adenocarcinoma (two patients, once every two weeks) it was “either a partial response or a complete response”; in assay [6] it was “partial responses”.

The term IC50 denotes the concentration needed to halve the response being measured.
